“Also recorded” adds a separate entry of the source.
How the values were obtained:
[1] = dosage and administration regimes used; cited from earlier work
[2] = tested on: Lewis lung carcinoma (LLC); test: Syngeneic LLC murine model of lung cancer; assay type: in vivo, mouse; conditions: for body weight gain: day 16 vs. day 0
Procedure: Metastatic lung cancer was established by tail vein injection of Lewis lung carcinoma (LLC) (a mouse NSCLC cell line, Bertram et al., 1980, Cancer Lett, 11:63-73) cells into immunocompetent mice (FIG. 30A). Intravenous dosing of Bobcat339 (or vehicle) at 2.5 mg/kg every four days was initiated three days after tumor cell injection. The lungs were collected at day 20 from sacrificed mice. On day 16 as compared to day 0, mice in the Veh group lost ~5% of body weight, whereas those in the Bobcat339 group gained ~6% of body weight, which would be expected for a normal female mouse during this age period (FIG. 30B). […] Severe weight loss is frequently seen in patients with NSCLC, which is also associated with systemic inflammation and cancer cachexia (Staal-van den Brekel et al., 1995, J Clin Oncol, 13:2600-2605; Fredrix et al., 1991, Cancer, 68:1616-1621; Jatoi et al., 2001, Ann Thorac Surg, 72:348-351; Ulmann et al., 2019, Ann Nutr Metab, 75:223-230; Jouinot et al., 2020, Clin Nutr, 39:1893-1899).
Metastatic lung cancer was established by tail vein injection of Lewis lung carcinoma (LLC) (a mouse NSCLC cell line) (Bertram et al., 1980, Cancer Lett, 11:63-73) cells into immunocompetent mice (FIG. 29). Intravenous dosing of Bobcat339 (or vehicle) at 3 mg/kg every four days was initiated three days after tumor cell injection. The lungs were collected at day 20 from sacrificed mice.
LLC cells (2.5×10^5 cells/mouse) were injected into the tail vein of female C57BL/6J mice of 8-weeks old. Mice were randomly divided into vehicle (n=5) and Bobcat339 (n=5) groups. Three days after tumor cell injection, the vehicle group mice received tail vein injection of DMSO and the Bobcat339 group with Bobcat339 at the dose of 2.5 or 3 mg/kg body weight every four days. The animals were sacrificed 20 days after tumor cell injection and lungs were isolated and weighed. The whole lung was fixed in 4% paraformaldehyde overnight at 4 °C and embedded in paraffin for histological analysis and IHC. A second cohort of mice (n=5 in each group) treated as above were used for survival studies using moribund as an experimental endpoint.

[3] = tested on: TET3; test: TET3 protein in the ARC of mice (immunofluorescence); assay type: in vivo, mouse
Procedure: To test whether Bobcat339 affects TET3 protein expression in AgRP neurons, Agrp-IRES-Cre::LSL-Cas9-GFP mice with GFP expression specifically in AgRP neurons were intraperitoneally injected with vehicle or Bobcat339 at 2.5 mg/kg, followed by isolation of ARCs under fed conditions (9:00-11:00) two days later. This dose was chosen based on the dose response studies. TET2 expression was widespread but was negligible in AgRP neurons.
Bobcat339 powder (Sigma-Aldrich, SML2611) was freshly dissolved in DMSO (vehicle) at a concentration of 50 mg/mL and filtered through a 0.22 micron. It was further diluted with 1×PBS to a final concentration of 0.5 mg/mL before injections. Mice were injected intraperitoneally with Bobcat339 at 1 mg/kg, 2.5 mg/kg, or 4 mg/kg.
The immunofluorescence for brain slices was conducted using previous methods (18). In brief, postfixed sections were cut into 40-μm-thick sections, followed by 5 times washing. Then the sections were incubated in blocking solution for 20 minutes and incubated with anti-TET3 (dilution 1:2000; Millipore Sigma, ABE290), anti-TET2 (dilution 1:500; Proteintech, 21207-1-AP), anti-AGRP (dilution 1:400; H-003-57, Phoenix Pharmaceuticals), anti-NPY (dilution 1:800, Cell Signaling Technology, 11976S), anti-VGAT (dilution 1:200; Abcam, Ab23592), or anti-FOS (dilution 1:1000; Biosensis, R-1751-050) overnight at 4 °C. Negative controls were performed by omitting the respective primary antibodies. The next day, sections were washed 5 times and incubated in 0.4% Triton x-100 PBS with the secondary antibody donkey anti-Rabbit IgG Fluor 594 (dilution 1:500; A-21207, Invitrogen) for 2 h at RT. The sections were coverslipped and scoped using a Keyence BZ-X700 fluorescence microscope. The fluorescence signals from GFP in AgRP neurons were detected without immunostaining.

[4] = tested on: Lin28; test: Lin28 expression in mouse peritoneal macrophages; assay type: cell-based; conditions: 10 μM, 48 h
Procedure: For cultured mouse peritoneal macrophages, cells were primed with 30 ng/ml of TGF-β1 (R&D Systems, 7666-MB0-005) for 48 h (to increase TET3 expression) before Bobcat339 treatment. Bobcat339 (or DMSO) was added at a final concentration of 10 μM, followed by RNA and protein extraction at time points indicated in the figure legends.
Total RNAs were extracted from cells using PureLink RNA Mini Kit. 0.5-1 μg total RNA was reverse transcribed to cDNA in a reaction volume of 20 μL using PrimeScript RT Reagent Kit. Real-time quantitative PCR was performed in a 15 μL reaction volume containing 0.5-1 μL of cDNA using SsoAdvanced Universal SYBR Green Supermix in a Bio-Rad iCycler. Gene expression levels were normalized against RPLP0.

[5] = 2.5 mg/kg i.v. every four days, day 20

Nc1nc(=O)n(-c2cccc(-c3ccccc3)c2)cc1Cl [Bobcat339, 4-Amino-1-[1,1′-biphenyl]-3-yl-5-chloro-2(1H)-pyrimidinone]
adverse pathology [1]: minimal adverse pathology
food intake ([2]; 2.5 mg/kg i.v. every four days): no difference in food intake
body weight gain ([2]; 2.5 mg/kg i.v. every four days): ~ 6%
LLC metastases in lungs [2, 5]: Fewer LLC metastases
lung weight [2, 5]: significantly less
LLC metastases in lungs ([2]; 3 mg/kg i.v. every four days): fewer LLC metastases
food intake ([2]; 3 mg/kg i.v. every four days): no difference in food intake
lung weight ([2]; 3 mg/kg i.v. every four days): significantly less
survival rate ([2]; 3 mg/kg i.v. every four days): an increased survival rate
body weight gain ([2]; 3 mg/kg i.v. every four days): ~ 6%
TET3-positive AgRP neurons ([3]; 2.5 mg/kg i.p., two days): a clear decrease in the number of TET3-positive AgRP neurons; also recorded: decreased TET3 protein in AgRP neurons; also recorded: inhibited TET3 expression in AgRP neurons
TET3 protein in non-AgRP cells ([3]; decrease limited to the tip regions of the ARC even at 4 mg/kg): decreased TET3 protein in non-AgRP cells
onset of TET3 decrease in AgRP neurons and neuron activation ([3]; following exposure to Bobcat339): as early as three days
Lin28 expression [4]: decreased
